From patent US20250346571A1, “BICYCLIC DERIVATIVE PARP INHIBITOR AND USE THEREOF” (XIZANG HAISCO PHARMACEUTICAL CO., LTD., priority 2022, published 2025) come the findings set out here.

A short description of this series: Pharmacokinetic test in mice. The format is in vivo, Balb/c mice. Here is the method: 4.1 Experimental animal: male Balb/c mice, 20-25 g, 12 mice/compound, purchased from Chengdu Ddossy Experimental Animals Co., Ltd.
4.2 Experimental design: on the day of the test, 60 Balb/c mice were randomly grouped according to their body weights. The animals were fasted with water available for 12 to 14 h one day before the administration and were fed 4 h after the administration.
Before and after the administration, 0.06 mL ofblood was taken from the orbit of the animals under isoflurane anesthesia and placed in an EDTAK2 centrifuge tube. The blood was centrifuged at 5000 rpm and 4° C. for 10 min to collect plasma. The blood collection time points for the intravenous administration group and intragastric administration group were 0, 5 min, 15 min, 30 min, 1 h, 2 h, 4 h, 6 h, 8 h, and 24 h. The brain tissues were collected at 30 min, 2 h and 24 h after administration of compounds 12, 15 and 18, respectively. The brain tissues were collected 24 hours after administration of compounds 2 and 5, rinsed with cold physiological saline to remove the residual blood on the surface, drained out and then homogenized. Before analysis and detection, all samples were stored at −80° C. The samples were analyzed quantitatively by LC-MS/MS.

[1] abbreviates: male, Balb/c, mouse, iv, mice, i.v. 2.5 mg/kg, plasma.

As for `O=C(NC1CC1)c1ccc(N2CCN(Cc3ccc4nc(C(F)F)c(=O)[nH]c4c3F)CC2)c(F)n1` [Compound 12, N-cyclopropyl-5-(4-((2-(difluoromethyl)-5-fluoro-3-oxo-3,4-dihydroquinoxalin-6-yl)methyl)piperazin-1-yl)-6-fluoropicolinamide], the “pharmacokinetic characteristics in mice” value (conclusion in words) is reported as “good pharmacokinetic characteristics”. For the same molecule, under setting [1], the area under the curve AUC(0-t) worked out at 19000 ± 3590 ng·h/mL and the clearance was 2.16 ± 0.31 mL/min/kg. The Vd (male, Balb/c, mouse, iv, mice, i.v. 2.5 mg/kg, plasma, read-out: Vdss) was found to be 0.42 ± 0.017 L/kg. Further, the bioavailability (male, Balb/c, mouse, plasma, po, mice, i.g. 10 mg/kg) was ≥ 98%. In addition, under “male, Balb/c, mouse, po, mice, i.g. 10 mg/kg, plasma”, the area under the curve AUC(0-t) worked out at 80800 ng·h/mL.

The AUC(0-t) is the area under the concentration-time curve up to a stated or last time point. A lower AUC(0-t) goes with less exposure. The term clearance denotes a measure of how efficiently the substance is removed, as volume per time. The bioavailability is the share of a dose that reaches the circulation, judged against a reference dose that is usually intravenous. A low value points to little systemic uptake.
